Source: US20110165115A1, “SYNERGISTIC ATTRACTANTS FOR PESTIFEROUS SOCIAL INSECTS” (STERLING INTERNATIONAL INC., priority 2010, published 2011)

Assays:
yellowjackets = experiment: Field trapping Experiment 1, top chamber catches; type: in vivo; conditions: Exp 1; HIPV combined with W•H•Y attractant (acetic acid and 2-methyl-1-butanol) in the top chamber
Protocol: (§1) Three field trapping experiments were carried out during late July to early August 2009, in residential and woody areas around Spokane, Wash., USA, using the newly marketed Rescue® W•H•Y traps (www.rescue.com). As used herein, the W•H•Y trap is a trap in accordance with the description of United States Patent Application Publication No. 2009/0151228. The W•H•Y trap has a top chamber and a bottom chamber. The top chamber is baited with two attractants—one of which is a solid contained in a vial (2-methyl-1-butanol) and the other a liquid mixed with water (acetic acid), herein referred to as the W•H•Y top attractant. The bottom chamber is baited with a liquid attractant (heptyl butyrate) poured onto a cotton pad, herein referred to as the W•H•Y bottom attractant. Separation of the top and bottom attractants (otherwise antagonistic to each other when released from the same chamber) in two chambers was a design feature of this trap and creates two focal attraction sources from one trap for different species of wasps, hornets, and yellowjackets. Traps were hung 1.5-2.0 m above the ground on either the fence or tree branches ca. 5 m apart within each trap line. For each trapping experiment, six sets of traps were deployed with their initial trap positions within each set being randomized. To minimize positional effects and obtain more replications, wasp collections and trap re-randomization were carried out when ≧10-20 wasps were caught in the best trap. Each replicate lasted several days depending on wasp flight activity. Captured wasps were removed from the traps and kept in the zip-bags before taking back to the laboratory for recording of the species, gender status, and catch.
Experiment 3 (Aug. 5-13, 2009) was conducted to determine the potential behavioral activity of different doses of (E)-4,8-dimethyl-1,3,7-nonatriene alone. The individual (or different doses) HIPVs were loaded into either polyethylene bags or centrifuge tube type of dispensers, and released from the top of the W•H•Y trap chamber. […]

V. pensylvanica = experiment: Field trapping Experiment 1, Rescue W•H•Y traps; type: in vivo, Vespula pensylvanica; conditions: Exp 1; HIPV added to WHY attractant in the top chamber, or WHY alone
Protocol: as §1
(§2) Experiment 3 (Aug. 5-13, 2009) was conducted to determine the potential behavioral activity of different doses of (E)-4,8-dimethyl-1,3,7-nonatriene alone. The individual (or different doses) HIPVs were loaded into either polyethylene bags or centrifuge tube type of dispensers, and released from the top of the W•H•Y trap chamber. W•H•Y trap attractants (both top and bottom or top only) alone and water (top chamber only) were included in the test as positive and blank controls, respectively. The dispenser types, loading and release rates of the tested semiochemicals are described in Tables 1, 2 and 3.
(§3) Trap catch data were converted to proportion (P) of total captured wasps within each replicate. Data were then transformed by arcsin√P to meet the assumptions of normality and homogeneity of variances for ANOVA. Means were compared by ANOVA followed by the Ryan-Einot-Gabriel-Welsh (REGW) multiple Q test (SPSS 16.0 for Windows) at α=0.05.

V. germanica = experiment: Field trapping Experiment 3, different doses of DMNT alone; type: in vivo, Vespula germanica
Protocol: as §1, §2, §3

V. consobrina = type: in vivo, Vespula consobrina; conditions: Exp 1; HIPV added to WHY attractant in the top chamber, or WHY alone
Protocol: as §1, with “catch. […]” for “catch.”
as §3

[1] = system: paper wasps and yellowjackets; experiment: Field trapping Experiment 2; type: in vivo, V. pensylvanica, V. vulgaris and P. dominulus; conditions: Exp 2
Protocol: as §1, with “To minimize positional effects and obtain more replications, wasp collections and trap re-randomization were carried out when ≧10-20 wasps were caught in the best trap. Each replicate lasted several days depending on wasp flight activity. Captured wasps were removed from the traps and kept in the zip-bags before taking back to the laboratory for recording of the species, gender status, and catch.” left out

[2] = system: Polistes dominulus worker antennae; experiment: GC-EAD of cherry branch aeration samples
Protocol: Lapin cherry branches with severely damaged cherries and leaves and undamaged or slightly damaged branches were collected from a cherry orchard at Creston, Canada, on Jul. 29, 2009, and were transported to the Sterling International, Inc. lab (Spokane, Wash.) on the same day and kept at 4° C. before aerations. Headspace volatiles from the cherry branches (damaged or undamaged) were sampled by a battery operated pump and a high density polyacetate oven bag (48.2×59.6 cm Reynolds® Oven Bag; Richmond, Va., USA) enclosure with one activated charcoal filter tube in the air inlet, on Jul. 30, 2009. The volatiles in the enclosure were trapped on one Porapak Q tube (50/80 mesh; 30 mg in Teflon tube: 3 mm×35 mm) for 2.5 hr (airflow 300 ml/min) and extracted with 1 ml redistilled pentane. Aeration samples of the cherry branches (damaged or undamaged/slightly damaged) were injected (3 μl) splitless into a Varian CP-3800 GC equipped with a polar column (HP-INNOWax; 30 m×0.53 mm×1.0 μm film thickness; […] Helium was used as the carrier gas, and the injector and detector temperatures were 250° C. and 300° C., respectively. Column temperature was 50° C. for 1 min, rising to 240° C. at 10° C./min, and then held for 10 min. The outlet for the EAD was held in a humidified air stream flowing at 0.5 m/sec over the antennal preparation. EAD recordings were made using silver wire-glass capillary electrodes filled with Beadle-Ephrussi Ringer on freshly cut antennae. The antennal signals were stored and analyzed on a PC equipped with a serial IDAC interface box and the program EAD ver. 2.5 (Syntech, Hilversum, The Netherlands). […] (See FIG. 2.) The same chemicals were also tested on beneficial insect antennae from Chrysopa oculata, Myrmeleon crudelis, Podisus maculiventris, and Hippodarnia convergens. (See […] active peaks in the aeration samples were identified by GC-MS on an HP 6890 GC series coupled with an HP 5973 Mass Selective Detector using the same type of GC column and conditions as described above. Compounds were identified by comparison of retention times with those of authentic standards and with mass spectra of standards.

[3] = aeration of severely damaged cherry branches, at current release rates
[4] = aeration of undamaged or slightly damaged cherry branches

C=C/C=C(\C)CCC=C(C)C [(E)-4,8-dimethyl-1,3,7-nonatriene]
effect on trap catches of yellowjackets in the top chambers (yellowjackets): significantly increased
Total Yellowjacket Catches V. pensylvanica (V. pensylvanica): 463
Total Yellowjackets Caught V. germanica (V. germanica; Exp 3, release rate 0.25, hole 0.5 mm, loading 15 μL): 0
Total Yellowjackets Caught V. germanica (V. germanica; Exp 3, release rate 0.5, hole 1 mm, loading 30 μL): 0
Total Yellowjackets Caught V. germanica (V. germanica; Exp 3, release rate 1, hole 2 mm, loading 75 μL): 0
Total Yellowjackets Caught V. germanica (V. germanica; Exp 3, release rate 1.5, hole 3 mm, loading 175 μL): 0
Total Yellowjackets Caught V. germanica (V. germanica; Exp 3, release rate 2, hole 5.5 mm, loading 325 μL): 0
Total Yellowjacket Catches V. consobrina (V. consobrina): 0
effect on trap catches of the vespid workers ([1]; 0.5 or 1-1.5 mg/day added to the top attractants, especially V. pensylvanica, V. vulgaris and P. dominulus): significantly increased
effect on the trap catches ([1]; other release rates (doses) added to the top attractants): no effect
EAD response of worker antennae [2, 3]: significant EAD response

COC(=O)c1ccccc1O [Methyl Salicylate, methyl salicylate]
Total Yellowjacket Catches V. pensylvanica (V. pensylvanica): 226
Total Yellowjacket Catches V. consobrina (V. consobrina): 2
EAD response of worker antennae [2, 3]: did not elicit significant EAD-responses

CC/C=C\CCO [Z-3-Hexanol, (Z)-3-hexen-1-ol]
Total Yellowjacket Catches V. pensylvanica (V. pensylvanica): 288
Total Yellowjacket Catches V. consobrina (V. consobrina): 0
EAD response of worker antennae [2, 3]: did not elicit significant EAD-responses
EAD response of worker antennae [2, 4]: strongly responded

CC/C=C\CCOC(C)=O [Z-3-Hexenyl Acetate, (Z)-3-hexenyl acetate]
Total Yellowjacket Catches V. pensylvanica (V. pensylvanica): 311
Total Yellowjacket Catches V. consobrina (V. consobrina): 1
EAD response of worker antennae [2, 3]: did not elicit significant EAD-responses
EAD response of worker antennae [2, 4]: strongly responded
